# In ChEMBL document CHEMBL1144473, “Selective inhibition of carboxylesterases by isatins, indole-2,3-diones” (J Med Chem, 2007):
# The source made the active and inactive calls. The rule behind the calls is not given here.
# Tests used:
# [1] = Inhibition of rabbit liver carboxylesterase expressed in sf21 cells up to 100 uM; conditions: Oryctolagus cuniculus
# [2] = Inhibition of human intestinal carboxylesterase expressed in sf21 cells up to 100 uM
# Liver carboxylesterase 1 [3] = molecular target: T1, Liver carboxylesterase 1 (Homo sapiens, UniProt P23141); assay: Inhibition of human liver CE1 expressed in sf21 cells up to 100 uM
# T1 sequence (P23141 whole entry): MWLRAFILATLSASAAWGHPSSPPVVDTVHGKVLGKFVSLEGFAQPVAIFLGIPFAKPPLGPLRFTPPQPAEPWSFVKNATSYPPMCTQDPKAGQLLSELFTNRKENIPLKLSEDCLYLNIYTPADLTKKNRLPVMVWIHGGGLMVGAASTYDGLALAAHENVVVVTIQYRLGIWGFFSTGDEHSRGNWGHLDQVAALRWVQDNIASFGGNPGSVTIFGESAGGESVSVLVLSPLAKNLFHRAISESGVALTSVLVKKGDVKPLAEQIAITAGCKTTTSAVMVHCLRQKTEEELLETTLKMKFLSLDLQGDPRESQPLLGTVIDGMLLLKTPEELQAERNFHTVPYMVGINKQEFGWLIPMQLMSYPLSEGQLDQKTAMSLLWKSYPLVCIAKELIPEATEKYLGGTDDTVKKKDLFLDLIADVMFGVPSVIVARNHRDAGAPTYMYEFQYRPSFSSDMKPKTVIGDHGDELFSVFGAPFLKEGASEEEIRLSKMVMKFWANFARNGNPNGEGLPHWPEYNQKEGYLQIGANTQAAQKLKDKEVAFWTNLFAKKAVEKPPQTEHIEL
# [4] = Inhibition of human intestinal carboxylesterase expressed in sf21 cells
# Liver carboxylesterase 1 [5] = molecular target: T1, Liver carboxylesterase 1; assay: Inhibition of human liver CE1 expressed in sf21 cells; assay type: cell-based
# [6] = Inhibition of rabbit liver carboxylesterase expressed in sf21 cells; assay type: cell-based, Oryctolagus cuniculus
# Acetylcholinesterase = Acetylcholinesterase (Homo sapiens, UniProt P22303)
# Sequence of Acetylcholinesterase (P22303 whole entry): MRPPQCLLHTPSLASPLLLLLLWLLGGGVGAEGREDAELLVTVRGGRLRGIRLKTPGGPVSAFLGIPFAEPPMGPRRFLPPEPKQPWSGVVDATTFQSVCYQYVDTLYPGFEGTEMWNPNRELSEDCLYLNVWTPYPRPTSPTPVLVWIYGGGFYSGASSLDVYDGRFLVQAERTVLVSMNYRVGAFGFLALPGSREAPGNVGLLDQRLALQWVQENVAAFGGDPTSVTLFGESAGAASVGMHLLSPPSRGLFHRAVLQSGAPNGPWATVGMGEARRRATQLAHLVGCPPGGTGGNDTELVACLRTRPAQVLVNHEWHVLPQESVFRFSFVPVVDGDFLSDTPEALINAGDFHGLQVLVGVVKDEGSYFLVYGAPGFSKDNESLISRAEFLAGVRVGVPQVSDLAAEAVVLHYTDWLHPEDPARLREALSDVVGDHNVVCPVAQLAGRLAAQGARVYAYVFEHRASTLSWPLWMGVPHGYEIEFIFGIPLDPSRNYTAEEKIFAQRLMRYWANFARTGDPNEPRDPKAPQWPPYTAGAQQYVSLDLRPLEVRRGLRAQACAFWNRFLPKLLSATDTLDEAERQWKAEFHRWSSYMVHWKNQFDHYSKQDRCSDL
# Cholinesterase = Cholinesterase (Homo sapiens, UniProt P06276)
# Sequence of Cholinesterase (P06276 whole entry): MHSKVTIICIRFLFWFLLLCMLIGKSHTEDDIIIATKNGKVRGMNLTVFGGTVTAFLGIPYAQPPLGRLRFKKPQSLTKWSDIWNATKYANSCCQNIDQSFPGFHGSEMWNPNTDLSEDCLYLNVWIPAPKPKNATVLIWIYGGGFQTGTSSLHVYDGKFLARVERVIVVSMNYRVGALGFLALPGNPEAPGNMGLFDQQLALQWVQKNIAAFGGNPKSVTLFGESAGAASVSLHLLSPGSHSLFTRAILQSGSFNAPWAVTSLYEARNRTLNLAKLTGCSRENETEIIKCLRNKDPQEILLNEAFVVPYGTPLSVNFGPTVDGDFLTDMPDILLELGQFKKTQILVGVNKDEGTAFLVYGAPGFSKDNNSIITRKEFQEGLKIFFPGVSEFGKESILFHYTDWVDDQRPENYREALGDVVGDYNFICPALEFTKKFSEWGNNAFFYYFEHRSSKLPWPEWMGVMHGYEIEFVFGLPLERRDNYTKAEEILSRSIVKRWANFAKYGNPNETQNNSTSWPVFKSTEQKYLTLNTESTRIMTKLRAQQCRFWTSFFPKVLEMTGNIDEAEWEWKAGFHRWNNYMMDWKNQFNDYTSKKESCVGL
Activity (Liver carboxylesterase 1 [3]),SMILES,Activity [1],Activity [2],Ki [4] [µM],Ki (Liver carboxylesterase 1 [5]) [µM],Ki [6] [µM],Ki (Acetylcholinesterase) [µM],Ki (Cholinesterase) [µM]
Not Active,C1=Cc2ccccc2C1 [INDENE],inactive,inactive,,,,,
Not Active,O=C1CC(=O)c2ccccc21,inactive,inactive,,,,,
Not Active,O=C1NC(=O)c2ccccc21 [PHTHALIMIDE],inactive,inactive,,,,,
Not Active,N/N=C1\C(=O)Nc2ccccc21,inactive,inactive,,,,,
,O=C1Nc2ccc(Br)cc2C1=O,,,13.3,31.7,1.32,> 100,> 100
,O=C1C(=O)N(C(=O)CCl)c2ccccc21,,,> 100,> 100,> 100,> 100,> 100
,O=C1C(=O)N(CCI)c2ccccc21,,,0.74,0.13,2.15,> 100,> 100
Not Active,O=C1Nc2ccccc2/C1=N/O,inactive,inactive,,,,,
,O=C1C(=O)N(CCBr)c2ccccc21,,,1.58,0.29,5.15,> 100,28.1
,O=C1Nc2ccc([N+](=O)[O-])cc2C1=O [5-NITROISATIN],,,> 100,> 100,6.43,> 100,> 100
,O=C1Nc2c(F)cccc2C1=O,,,> 100,> 100,> 100,> 100,> 100
Not Active,c1ccc2[nH]ccc2c1 [INDOLE],inactive,inactive,,,,,
,COc1cc(NCN2C(=O)C(=O)c3ccccc32)cc(OC)c1OC,,,2.69,19.5,> 100,> 100,> 100
,Cc1ccc(NCN2C(=O)C(=O)c3ccccc32)cc1,,,1.08,2.65,7.4,> 100,18.1
,O=C1C(=O)N(Cc2ccc(Cl)c(Cl)c2)c2ccccc21,,,0.067,0.031,0.065,48.2,12.6
Not Active,O=C1c2ccccc2C(=O)N1c1ccccc1 [N-PHENYL-PHTHALIMIDE],inactive,inactive,,,,,
,Cc1cc(C)c2c(c1)C(=O)C(=O)N2,,,84.6,> 100,30.5,> 100,> 100
,O=C1Nc2ccccc2C1=O [ISATIN],,,> 100,> 100,> 100,> 100,> 100
,O=C1Nc2cc(Cl)c(Cl)cc2C1=O,,,16.6,21,0.49,> 100,> 100
,O=C1C(=O)N(CN2CCSCC2)c2ccccc21,,,22.2,> 100,> 100,> 100,98.9

SMILES,Activity (Liver carboxylesterase 1 [3]),Activity [1],Activity [2],Ki [4] [µM],Ki (Liver carboxylesterase 1 [5]) [µM],Ki [6] [µM],Ki (Acetylcholinesterase) [µM],Ki (Cholinesterase) [µM]
c1ccc2c(c1)CCN2 [INDOLINE],Not Active,inactive,inactive,,,,,
c1ccc2c(c1)CCC2,Not Active,inactive,inactive,,,,,
